Source: patent US5948886A, “Acylated enol derivatives of α-ketoesters and α-ketoamides” (Hoechst Marion Roussel, Inc., priority 1997, dated 1999)

What was measured:
Elastase [1] = biological target: T1, Elastase (Homo sapiens, UniProt P08246); assay: In vitro assay of elastase with chromogenic substrate N-MeOSuc-Ala-Ala-Pro-Val-p-nitroanilide, no esterase; type: biochemical; settings: for rate of hydrolysis of the substrate (no inhibitor or prodrug added = 100%): without esterase; for Ki: parent (liberated) drug itself, read-out: Ki measured / determined independently
T1 construct: Elastase is isolated from human sputum; from tissue; host or cells: human sputum
T1 sequence (P08246 30-267): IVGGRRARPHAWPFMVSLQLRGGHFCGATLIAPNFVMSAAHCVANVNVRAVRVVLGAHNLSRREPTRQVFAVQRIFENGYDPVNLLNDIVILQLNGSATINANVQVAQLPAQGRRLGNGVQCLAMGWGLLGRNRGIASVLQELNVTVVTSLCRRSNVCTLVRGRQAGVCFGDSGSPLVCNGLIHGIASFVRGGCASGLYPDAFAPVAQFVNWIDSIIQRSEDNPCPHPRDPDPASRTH
Description: (§1) Elastase was assayed in vitro using the chromogenic substrate N-MeOSuc-Ala-Ala-Pro-Val-p-nitroanilide ([S]=0.20 mM; Km=0.16 mM), available commercially. The assay techniques are similar to those described by Mehdi, et al., Biochemical and Biophysical Research Communications, 166, 595 (1990). The assay mixture consists of partially purified elastase and substrate (0.2 mM) in 0.1 M HEPES (pH 7.5), 0.5 M NaCl, 10% DMSO and 0.1% Brij 35. The reaction (1 or 2 mL, in a plastic cuvette) is maintained at 37° C. and the hydrolysis of the substrate is followed in the presence of MDL 104,569 and 5 units/mL of porcine liver esterase (Sigma Chemical Co., cat. no. E-3128). Elastase is isolated from human sputum, although recently it has become commercially available. The rate of hydrolysis of the substrate with no inhibitor or prodrug added is assigned 100%. In the presence of 1 μM MDL 104,569, a rate of 81% was obtained; when esterase ([…], Sigma Chemical Co.) was also present, the rate decreased to 24%.
(§2) Elastase was assayed in vitro in the presence of MDL 105,565 using the techniques and procedures described in Example 18. With MDL 105,565, at a concentration of 10 nM, a rate of 99% was obtained; when esterase was added, this rate was 76%. At a concentration of 45 nM, the rates were 94% (without esterase) and 37% (with esterase).

Elastase [2] = biological target: T1, Elastase; assay: In vitro assay of elastase in the presence of the prodrug and porcine liver esterase; type: biochemical
Description: as §1, §2

SMILES: COC(=O)CCC(=O)N[C@@H](C)C(=O)N[C@@H](C)C(=O)N1CCC[C@H]1C(=O)NC(=C(OC(C)=O)C(=O)OC)C(C)C (mixture of isomers) [MDL 104,569, L-Prolinamide, N-(4-methoxy-1,4-dioxobutyl)-L-alanyl-L-alanyl-N-[2-(acetyloxy)-3-methoxy-1-(1-methylethyl)-3-oxo-1-propenyl]-, (E)- and (Z)-mixture]
- rate of hydrolysis of the substrate (no inhibitor or prodrug added = 100%) (Elastase [1]; 1 μM compound, substrate 0.2 mM, pH 7.5, 37° C.): 81%
- rate of hydrolysis of the substrate (no inhibitor or prodrug added = 100%) (Elastase [2]; 1 μM compound, esterase also present): 24%

SMILES: COC(=O)/C(OC(C)=O)=C(\NC(=O)[C@@H]1CCCN1C(=O)[C@@H](NC(=O)c1ccc(C(=O)NS(=O)(=O)c2ccc(Cl)cc2)cc1)C(C)C)C(C)C [MDL 105,565, L-Prolinamide, N-[4-[[[(4-chlorophenyl)sulfonyl]amino]carbonyl]benzoyl]-L-valyl-N-[2-(acetyloxy)-3-methoxy-1-(1-methylethyl)-3-oxo-1-propenyl]-, (E)]
- rate of hydrolysis of the substrate (no inhibitor or prodrug added = 100%) (Elastase [1]; 10 nM compound): 99%
- rate of hydrolysis of the substrate (no inhibitor or prodrug added = 100%) (Elastase [1]; 45 nM compound): 94%
- rate of hydrolysis of the substrate (no inhibitor or prodrug added = 100%) (Elastase [2]; 10 nM compound, esterase added): 76%
- rate of hydrolysis of the substrate (no inhibitor or prodrug added = 100%) (Elastase [2]; 45 nM compound, with esterase): 37%

SMILES: COC(=O)CCC(=O)NC(C)C(=O)NC(C)C(=O)N1CCCC1C(=O)NC(C(=O)C(=O)OC)C(C)C (stereo not drawn) [parent drug, MeOSuc-Ala-Ala-Pro-Val-CO2 CH3, reference compound]
- Ki (Elastase [1]): 200 nM

SMILES: COC(=O)C(=O)C(NC(=O)C1CCCN1C(=O)C(NC(=O)c1ccc(C(=O)NS(=O)(=O)c2ccc(Cl)cc2)cc1)C(C)C)C(C)C (stereo not drawn) [liberated drug, reference compound]
- Ki (Elastase [1]): 2 nM
- Ki (Elastase [2]; drug liberated from MDL 105,565 by esterase in the assay, read-out: Ki of the liberated drug, calculated): 13 nM
